Measurements reported in patent US20220403001A1, “PDE5 DERIVED REGULATORY CONSTRUCTS AND METHODS OF USE IN IMMUNOTHERAPY” (Obsidian Therapeutics, Inc., priority 2018, published 2022).
Like-named read-outs stand apart in the source and are kept apart here. Each block holds one compound with its values, some of them ahead of it.

Legend:
[1] = approved dose, cited from earlier work; for Cmax: PO
[2] = Plasma PK of Tadalafil and Vardenafil after a single oral dose (LC/MS/MS); type: in vivo, mice; conditions: mouse, read-out: Plasma levels; for concentration at 1 h: 1 hour post dose; for concentration at 2 h: 2 hours post dose; for concentration at 4 h: 4 hours post dose; for concentration at 8 h: 8 hours post dose; for concentration at 12 h: 12 hours post dose; for concentration at 16 h: 16 hours post dose; for concentration at 24 h: 24 hours post dose
Protocol: Plasma samples collected over time and PDE5 inhibitor concentrations were determined by LC/MS/MS (Table 60). The Vardenafil/Tadalafil levels detected in the plasma declined over time and were commensurate with the initial dose orally administered to the animal.

hPDE5 mutants [3] = experiment: GFP expression (MFI) by FACS in HEK293 cells expressing hPDE5 constructs; conditions: read-out: EC50 of ligand dependent stabilization; HEK293 cells expressing OT-001076, OT-001083, OT-001084; 48 h
Protocol: The mutant library was ligated in frame with an AcGFP reporter at C-terminus and cloned into pLVX-IRES—Puro vectors. […] DNA was extracted from the cell pool, cloned into vectors, and transformed into E. coli. Individual clones were sequenced and cloned in frame with a linker [sequence] […] HEK293 cells were transduced with individual clones and selected with puromycin.
The GFP expression in cells expressing hPDE5 constructs was measured by FACS.
The stability of hPDE5 mutants was measured using FACS and mean fluorescence intensity (MFI) of GFP was calculated.

hPDE5 mutants [4] = target: T1, hPDE5 mutants (Homo sapiens, UniProt O76074); experiment: Western blot of AcGFP/GFP protein levels in HCT 116 cells expressing hPDE5 mutants; type: cell-based; design: GFP protein levels (western blot); fused on or other part: AcGFP reporter through a linker; conditions: vardenafil vs DMSO, HCT 116, R732 mutants
Protocol: Protein expression analysis of the combination mutants was performed in parallel via western blot. […] GAPDH levels were also analyzed to ensure even protein loading.

hPDE5 mutants [5] = experiment: GFP MFI by FACS in HCT116 cells transduced with hPDE5 constructs; type: cell-based, human; conditions: for Sildenafil Destabilizing mutation coefficient / Vardenafil Destabilizing mutation coefficient / GFP by FACS, Sildenafil 0 μM (DMSO) / GFP by FACS, Vardenafil 0 μM (DMSO): hotspot constructs; for Sildenafil Destabilizing mutation coefficient: DMSO control of Sildenafil; for Sildenafil Destabilizing mutation coefficient / Vardenafil Destabilizing mutation coefficient: vs OT-001075; for Vardenafil Destabilizing mutation coefficient: DMSO control of Vardenafil; for GFP by FACS, Sildenafil 0 μM (DMSO): HCT116, DMSO control of Sildenafil; for GFP by FACS, Vardenafil 0 μM (DMSO): HCT116, DMSO control of Vardenafil; for MFI: 48 hours, HCT 116 cells
hPDE5 mutants [6] = target: T1, hPDE5 mutants; experiment: as above; type: cell-based; conditions: for Vardenafil Stabilization ratio / Sildenafil Stabilization ratio / GFP by FACS, Sildenafil 10 μM / GFP by FACS, Vardenafil 1 μM: hotspot constructs; for Vardenafil Stabilization ratio: 1 μM Vardenafil; for Sildenafil Stabilization ratio: 10 μM Sildenafil; for GFP by FACS, Sildenafil 10 μM / GFP by FACS, Vardenafil 1 μM: HCT116
[7] = NSG mice, single oral dose 10 mg/kg
[8] = NSG mice, single oral dose 30 mg/kg
[9] = NSG mice, single oral dose 100 mg/kg
[10] = CD-1 mice, single oral dose 10 mg/kg
[11] = CD-1 mice, single oral dose 100 mg/kg
[12] = Table 44, Vardenafil 0.01 μM, 48 h, HCT 116
[13] = Table 44, Vardenafil 0.04 μM, 48 h, HCT 116
[14] = Table 44, Vardenafil 3.33 μM, 48 h, HCT 116
[15] = Table 44, Vardenafil 10 μM, 48 h, HCT 116
[16] = Table 44, Vardenafil 30 μM, 48 h, HCT 116
[17] = Table 44, Vardenafil 1000 μM, 48 h, HCT 116
[18] = Table 45, Sildenafil 0.01 μM, 48 h, HCT 116
[19] = Table 45, Sildenafil 0.04 μM, 48 h, HCT 116
[20] = Table 45, Sildenafil 3.33 μM, 48 h, HCT 116
[21] = Table 45, Sildenafil 10 μM, 48 h, HCT 116
[22] = Table 45, Sildenafil 30 μM, 48 h, HCT 116
[23] = Table 45, Sildenafil 1000 μM, 48 h, HCT 116
[24] = Tadalafil 0.01 μM, 48 hours, HCT 116 cells

- concentration at 1 h [2, 7]: 6.8 µM
- concentration at 2 h [2, 7]: 5.4 µM
- concentration at 4 h [2, 7]: 3.9 µM
- concentration at 8 h [2, 7]: 0.9 µM
- concentration at 12 h [2, 7]: 0.1 µM
- concentration at 16 h [2, 7]: 0 µM
- concentration at 1 h [2, 8]: 19.8 µM
- concentration at 2 h [2, 8]: 17.6 µM
- concentration at 4 h [2, 8]: 12.1 µM
- concentration at 8 h [2, 8]: 4.4 µM
- concentration at 12 h [2, 8]: 0.5 µM
- concentration at 16 h [2, 8]: 0.1 µM
- concentration at 24 h [2, 8]: 0 µM
- concentration at 1 h [2, 9]: 53.3 µM
- concentration at 2 h [2, 9]: 44.7 µM
- concentration at 4 h [2, 9]: 34.8 µM
- concentration at 8 h [2, 9]: 13.7 µM
- concentration at 12 h [2, 9]: 5.6 µM
- concentration at 16 h [2, 9]: 1.5 µM
- concentration at 24 h [2, 9]: 0.1 µM
Compound: CN1CC(=O)N2[C@H](c3ccc4c(c3)OCO4)c3[nH]c4ccccc4c3C[C@@H]2C1=O [Tadalafil]
- Cmax [1]: 1.5 µM
- Duration of action [1]: 24 to 36 h

- GFP protein levels (western blot) (hPDE5 mutants [4]): strong stabilization of GFP levels
- MFI (hPDE5 mutants [6]; [12]): 4336
- MFI (hPDE5 mutants [6]; [13]): 7350
- MFI (hPDE5 mutants [6]; [14]): 44499
- MFI (hPDE5 mutants [6]; [15]): 50822
- MFI (hPDE5 mutants [6]; [16]): 70645
- MFI (hPDE5 mutants [6]; [17]): 70645
- MFI (hPDE5 mutants [6]; [18]): 1192
- MFI (hPDE5 mutants [6]; [19]): 1270
- MFI (hPDE5 mutants [6]; [20]): 6171
- MFI (hPDE5 mutants [6]; [21]): 13971
- MFI (hPDE5 mutants [6]; [22]): 21120
- MFI (hPDE5 mutants [6]; [23]): 21120
- MFI (hPDE5 mutants [6]; [24]): 1163
- Vardenafil Stabilization ratio (hPDE5 mutants [6]): 1.44
- Sildenafil Stabilization ratio (hPDE5 mutants [6]): 1.32
- GFP by FACS, Sildenafil 10 μM (hPDE5 mutants [6]): 394
- GFP by FACS, Vardenafil 1 μM (hPDE5 mutants [6]): 422
Compound: OT-001198: hPDE5 R732D AcGFP construct
- MFI (hPDE5 mutants [5]; Tadalafil 11.11 μM): 10583
- MFI (hPDE5 mutants [5]; Tadalafil 33.33 μM): 16956
- MFI (hPDE5 mutants [5]; Tadalafil 100 μM): 22630
- MFI (hPDE5 mutants [5]; Tadalafil 1000 μM): 22630
- Sildenafil Destabilizing mutation coefficient (hPDE5 mutants [5]): 0.3
- Vardenafil Destabilizing mutation coefficient (hPDE5 mutants [5]): 1.83
- GFP by FACS, Sildenafil 0 μM (DMSO) (hPDE5 mutants [5]): 298
- GFP by FACS, Vardenafil 0 μM (DMSO) (hPDE5 mutants [5]): 294

The remaining lines, values behind:

Compound: CCCc1nc(C)c2c(=O)[nH]c(-c3cc(S(=O)(=O)N4CCN(CC)CC4)ccc3OCC)nn12 [Vardenafil]
- Cmax [1]: 0.1 µM
- concentration at 1 h [2, 10]: 0.16 µM
- concentration at 2 h [2, 10]: 0.03 µM
- concentration at 4 h [2, 10]: 0.02 µM
- concentration at 1 h [2, 11]: 7.81 µM
- concentration at 2 h [2, 11]: 3.04 µM
- concentration at 4 h [2, 11]: 3.32 µM
- concentration at 8 h [2, 11]: 1.18 µM
- concentration at 12 h [2, 11]: 0.04 µM
- EC50 (hPDE5 mutants [3]): 100 to 300 nM

Compound: OT-001196: hPDE5 R732S AcGFP construct
- GFP protein levels (western blot) (hPDE5 mutants [4]): strong stabilization of GFP levels
- Sildenafil Destabilizing mutation coefficient (hPDE5 mutants [5]): 0.77
- Vardenafil Destabilizing mutation coefficient (hPDE5 mutants [5]): 3.52
- GFP by FACS, Sildenafil 0 μM (DMSO) (hPDE5 mutants [5]): 760
- GFP by FACS, Vardenafil 0 μM (DMSO) (hPDE5 mutants [5]): 566
- Vardenafil Stabilization ratio (hPDE5 mutants [6]): 0.7
- Sildenafil Stabilization ratio (hPDE5 mutants [6]): 0.98
- GFP by FACS, Sildenafil 10 μM (hPDE5 mutants [6]): 746
- GFP by FACS, Vardenafil 1 μM (hPDE5 mutants [6]): 399

Compound: OT-001197: hPDE5 R732T AcGFP construct
- GFP protein levels (western blot) (hPDE5 mutants [4]): strong stabilization of GFP levels
- MFI (hPDE5 mutants [5]; Tadalafil 11.11 μM): 12843
- MFI (hPDE5 mutants [5]; Tadalafil 33.33 μM): 17164
- MFI (hPDE5 mutants [5]; Tadalafil 100 μM): 21113
- MFI (hPDE5 mutants [5]; Tadalafil 1000 μM): 21113
- Sildenafil Destabilizing mutation coefficient (hPDE5 mutants [5]): 0.28
- Vardenafil Destabilizing mutation coefficient (hPDE5 mutants [5]): 1.46
- GFP by FACS, Sildenafil 0 μM (DMSO) (hPDE5 mutants [5]): 276
- GFP by FACS, Vardenafil 0 μM (DMSO) (hPDE5 mutants [5]): 235
- MFI (hPDE5 mutants [6]; [12]): 2854
- MFI (hPDE5 mutants [6]; [13]): 6862
- MFI (hPDE5 mutants [6]; [14]): 41788
- MFI (hPDE5 mutants [6]; [15]): 48946
- MFI (hPDE5 mutants [6]; [16]): 67364
- MFI (hPDE5 mutants [6]; [17]): 67364
- MFI (hPDE5 mutants [6]; [18]): 856
- MFI (hPDE5 mutants [6]; [19]): 1041
- MFI (hPDE5 mutants [6]; [20]): 6896
- MFI (hPDE5 mutants [6]; [21]): 12407
- MFI (hPDE5 mutants [6]; [22]): 21258
- MFI (hPDE5 mutants [6]; [23]): 21258
- MFI (hPDE5 mutants [6]; [24]): 825
- Vardenafil Stabilization ratio (hPDE5 mutants [6]): 1.15
- Sildenafil Stabilization ratio (hPDE5 mutants [6]): 1.98
- GFP by FACS, Sildenafil 10 μM (hPDE5 mutants [6]): 546
- GFP by FACS, Vardenafil 1 μM (hPDE5 mutants [6]): 270
